Source: US20260374818A1, “CATIONIC PEPTIDES WITH BROAD SPECTRUM ACTIVITY” (priority 2023, published 2026)
Like-named read-outs stand apart in the source and are kept apart here.

Legend:
[1] = system: P. aeruginosa PAO1 planktonic cells; assay: MIC of antibiotics against planktonic cells, PAO1; type: cell-based, Pseudomonas aeruginosa; conditions: for MIC against planktonic cells in BM2 medium: PAO1, BM2; for MIC against planktonic cells in MHB medium: PAO1, MHB; for MIC: Pseudomonas aeruginosa
[2] = system: P. aeruginosa PAO1 biofilms; assay: Checkerboard biofilm synergy of AB103-D with antimicrobials, PAO1; type: cell-based, Pseudomonas aeruginosa; conditions: for FIC against biofilms: antibiotic used with AB103-D, ≤0.5 synergy; for Fold Decrease in concentration of AB103-D: in combination of antibiotic with AB103-D; for Fold Decrease in concentration of AB103-D / Fold Decrease in concentration of Antibiotic: PAO1; for Fold Decrease in concentration of Antibiotic: in combination with AB103-D
[3] = system: MRSA USA 300 LAC planktonic cells; assay: MIC of antibiotics against planktonic cells, MRSA; type: cell-based, methicillin resistant Staphylococcus aureus; conditions: for MIC in 10% TSB, 0.1% glucose / MIC in MHB medium: MRSA planktonic; for MIC: Staphylococcus aureus
[4] = system: MRSA USA 300 LAC biofilms; assay: Checkerboard biofilm synergy of AB103-D with antimicrobials, MRSA; type: cell-based, methicillin resistant Staphylococcus aureus; conditions: for Biofilm MBIC in 10% TSB, 0.1% glucose / Fold decrease AB103-D / Fold decrease Antibiotic: MRSA; for FIC: antibiotic used with AB103-D, MRSA USA 300 LAC, ≤0.5 synergy; for Fold decrease AB103-D: in combination of antibiotic with AB103-D; for Fold decrease Antibiotic: in combination with AB103-D
[5] = antibiotic alone, PAO1, BM2, at least 70% reduction
[6] = antibiotic alone, at least 70% reduction
[7] = PAO1, read-out: MIC against planktonic cells in BM2 medium
[8] = PAO1, read-out: MIC against planktonic cells in MHB medium
[9] = read-out: MIC in 10% TSB, 0.1% glucose

| Molecule | MIC against planktonic cells in BM2 medium [1] | MIC against planktonic cells in MHB medium [1] | Antibiotic MBIC against biofilms [2, 5] | FIC against biofilms ([2]; PAO1, BM2) | Fold Decrease in concentration of AB103-D [2] | Fold Decrease in concentration of Antibiotic [2] | MIC in 10% TSB, 0.1% glucose ([3]; 10% TSB, 0.1% glucose) | MIC in MHB medium [3] | Biofilm MBIC in 10% TSB, 0.1% glucose [4, 6] | FIC [4] | Fold decrease AB103-D [4] | Fold decrease Antibiotic [4] | MIC [1, 7] | MIC [1, 8] | MIC [3, 9] | MIC ([3]; read-out: MIC in MHB medium) | further results |
| --- | --- | --- | --- | --- | --- | --- | --- | --- | --- | --- | --- | --- | --- | --- | --- | --- | --- |
| Polymyxin B | 2 µg/mL | 2 µg/mL | 2 µg/mL | 0.56 | 16-fold | 2-fold | 2 | 4 µg/mL | 2 | 0.5 | 4-fold | 4-fold |  |  |  |  |  |
| CCC[C@@H]1C[C@@H](C(=O)N[C@@H]([C@H]2O[C@H](SC)[C@H](O)[C@@H](O)[C@H]2O)[C@H](C)Cl)N(C)C1 [Clindamycin] |  |  |  | 1 | 2-fold | 2-fold |  |  |  | 0.635 | 2-fold | 8-fold | > 256 µg/mL | > 256 µg/mL | 0.5 µg/mL | 0.125 µg/mL |  |
| OO [H2O2] |  |  |  | 0.5 | 4-fold | 4-fold |  |  |  | 0.63 | 8-fold | 2-fold |  |  |  |  | MIC against planktonic cells in BM2 medium ([1]; in %): 0.08%; MIC against planktonic cells in MHB medium ([1]; in %): 0.01%; Antibiotic MBIC against biofilms ([2]; PAO1, BM2, in %): 0.08%; MIC in MHB medium ([3]; in %): 0.0018%; MIC in 10% TSB, 0.1% glucose ([3]; in %): 0.0025%; Biofilm MBIC in 10% TSB, 0.1% glucose ([4]; in %): 0.0025% |
| C/C(=C\C(=O)OCCCCCCCCC(=O)O)C[C@@H]1OC[C@H](C[C@@H]2O[C@H]2[C@@H](C)[C@H](C)O)[C@@H](O)[C@H]1O [Mupirocin] |  |  |  |  | No | No |  |  |  | 0.75 | 2-fold | 4-fold | > 128 µg/mL | > 256 µg/mL | 0.25 µg/mL | 0.125 µg/mL |  |
| O=C(O)c1cn(C2CC2)c2cc(N3CCNCC3)c(F)cc2c1=O [Ciprofloxacin] |  |  |  | 0.53 |  |  |  |  |  | 0.5 |  |  |  |  |  |  |  |
| Polyvinylpyrrolidone-Iodine | 313 µg/mL | 2500 µg/mL | 313 µg/mL | 0.52 | 2-fold | 64-fold | 156 | 2500 µg/mL | 156 | 0.63 | 2-fold | 8-fold |  |  |  |  |  |
| CC[C@H]1OC(=O)[C@H](C)[C@@H](O[C@H]2C[C@@](C)(OC)[C@@H](O)[C@H](C)O2)[C@H](C)[C@@H](O[C@@H]2O[C@H](C)C[C@H](N(C)C)[C@H]2O)[C@](C)(O)C[C@@H](C)CN(C)[C@H](C)[C@@H](O)[C@]1(C)O [Azithromycin] |  |  |  | 0.75 | 2-fold | 4-fold |  |  |  | 0.38 | 8-fold | 4-fold | 128 µg/mL | 128 µg/mL | 4 µg/mL | 1 µg/mL |  |
| C[C@H]1[C@H](NC(=O)/C(=N\OC(C)(C)C(=O)O)c2csc(N)n2)C(=O)N1S(=O)(=O)O [Aztreonam] |  |  |  | 0.56 | 2-fold | 16-fold |  |  |  | 0.75 | 4-fold | 2-fold | 8 µg/mL | 4 µg/mL | > 128 µg/mL | > 128 µg/mL |  |
| NC[C@H]1O[C@H](O[C@H]2[C@H](O)[C@@H](O[C@H]3O[C@H](CO)[C@@H](O)[C@H](N)[C@H]3O)[C@H](N)C[C@@H]2N)[C@H](N)C[C@@H]1O [Tobramycin] |  |  |  | 1 | 2-fold | 2-fold |  |  |  | 0.38 | 8-fold | 4-fold | 2 µg/mL | 0.5 µg/mL | 0.125 µg/mL | 0.125 µg/mL |  |
| NCC[C@H](O)C(=O)N[C@@H]1C[C@H](N)[C@@H](O[C@H]2O[C@H](CN)[C@@H](O)[C@H](O)[C@H]2O)[C@H](O)[C@H]1O[C@H]1O[C@H](CO)[C@@H](O)[C@H](N)[C@H]1O [Amikacin] |  |  |  | 1.06 | No | 16-fold |  |  |  | 1 | 2-fold | 2-fold | 4 µg/mL | 0.5 µg/mL | 0.5 µg/mL | 0.5 µg/mL |  |
| CCn1cc(C(=O)O)c(=O)c2cc(F)c(N3CCNCC3)cc21 [Norfloxacin] |  |  |  | 1.13 | No | 8-fold |  |  |  | 0.5 | 4-fold | 4-fold | 0.25 µg/mL | 0.5 µg/mL | 32 µg/mL | 32 µg/mL |  |
| Gentamicin | 4 µg/mL | 1 µg/mL | 4 µg/mL | 0.53 | 2-fold | 32-fold | 0.06 | 0.06 µg/mL | 0.03 | 1.13 | No | 8-fold |  |  |  |  |  |
| Benzalkonium-C1 | 16 µg/mL | 16 µg/mL | 16 µg/mL | 0.51 | 2-fold | 128-fold | 1 | 0.25 µg/mL | 1 | 0.5 | 4-fold | 4-fold |  |  |  |  |  |
| C[C@@H](O)[C@H]1C(=O)N2C(C(=O)O)=C(S[C@@H]3CN[C@H](C(=O)N(C)C)C3)[C@H](C)[C@H]12 [Meropenem] |  |  |  | 1.06 | 16-fold | No |  |  |  | 0.31 | 16-fold | 4-fold | 0.06 µg/mL | 0.25 µg/mL | 0.25 µg/mL | 0.125 µg/mL |  |
| [H]/N=C(\N/C(=N/[H])NCCCCCCNC(=N)NC(=N)Nc1ccc(Cl)cc1)Nc1ccc(Cl)cc1 [Chlorhexidine] |  |  |  | 0.63 | 8-fold | 2-fold |  |  |  | 0.56 | 2-fold | 16-fold | 4 µg/mL | 3.12 µg/mL | 1 µg/mL | 0.4 µg/mL |  |
| COc1cc(Cc2cnc(N)nc2N)cc(OC)c1OC [Trimethoprim] |  |  |  | 1 | 2-fold | 2-fold |  |  |  | 0.56 | 2-fold | 16-fold | 128 µg/mL | 256 µg/mL | 8 µg/mL | 2 µg/mL |  |
| Colistin | 4 µg/mL | 1 µg/mL | 4 µg/mL | 0.63 | 8-fold | 2-fold | 4 | 8 µg/mL | 2 | 0.63 | 2-fold | 8-fold |  |  |  |  |  |
| CCN1CCN(C(=O)N[C@@H](C(=O)N[C@@H]2C(=O)N3[C@@H]2SC(C)(C)[C@@H]3C(=O)O)c2ccccc2)C(=O)C1=O [Piperacillin] |  |  |  | 1 | 2-fold | 2-fold |  |  |  | 0.63 | 2-fold | 8-fold | 4 µg/mL | 8 µg/mL | 4 µg/mL | 4 µg/mL |  |
| O=[N+]([O-])[O-].[Ag+] [AgNO3] | 0.03 µg/mL | 0.125 µg/mL | 0.03 µg/mL | 1 | 2-fold | 2-fold | 0.25 | 0.25 µg/mL | 0.25 | 1.13 | No | 8-fold |  |  |  |  |  |
